Results on two molecules are retold here after patent US8148354B2, “Use of 20(S)-protopanaxadiol in manufacture of antidepressants” (priority 2006, dated 2012).

Molecules are shown by their SMILES. Marks after values point to notes of the source that are not given here.

Test [1] relates to 5-HTP-Induced Tremors in Mice. Description: L-5-HTP induced tremor testing of mice. Format: in vivo, Kunming mice. To be noted: 10 mice per group. As for the experimental part: Seventy male Kunming mice, 8-9 weeks old and weighing 18-22 g, were randomly divided by weight into 7 groups and administered a single dose by gavage as shown in Table 13. […] Then, mice were individually put into cages (16×27 cm) and observed for 20 minutes. The number of animals with tremors was recorded. Fisher's exact test was used for statistical analysis.

Test [2] has as its system chronic unpredictable stress rats. The test is described as follows: Chronic unpredictable stress testing of rats (open-field test). The note with it: mean ± SD. The format is in vivo. The protocol: Male stressed SD rats were housed individually and exposed for 21 days to the following unpredictable stressors: ice water swimming (4° C., 5 min), tail pinch (3 min), water deprivation (40 h), food deprivation (40 h), paired feeding, wet bedding, binding, and overnight lighting, each stress was applied two or three times. Animals in the non-stressed control group were housed 5 per cage. An open-field test was used to observe behavior. A large cubiform box (80×80×40 cm) was employed in which the floor was divided into 25 grids of equal size using white lines, with the same size grids also marked on the surrounding walls. The number of floor grids crossed (crossing) and the number of rearing up on hind limbs (rearing) were recorded. Observations of each rat were made every 3 minutes on the 22nd day. T test was used for statistical analysis.

The subject of a further test is 5-HT Re-uptake. The test is described as follows: 5-HT re-uptake test ([14C]-5-HT, hypothalamus homogenate). Format: biochemical, SD rats. As for the experimental part:
Eight male SD rats were decapitated. The hypothalamuses were rapidly removed, weighed and homogenized in a 9-fold volume of 0.32 mol/L ice-cold sucrose solution, and centrifuged at a rate of 3420 rpm for 10 minutes at 0-4° C. […] Ten tubes were prepared for each group and all tubes were incubated at 37° C. for 5 minutes. […] CO2 chamber for 5 minutes, followed by centrifugation at a rate of 7,480 rpm for 10 minutes. The supernatant of the solution was put into a scintillation vial for counting after adding 10 ml scintillation fluid (scintillation was performed 3 times). The re-uptake of serotonin was calculated by the difference in DMP at 37° C. and 0° C.

Test [3] concerns mice in the forced swimming test. Description: Forced swimming test using mice. Format: in vivo, Kunming mice. The note with it: mean ± SD. The protocol: Fifty male Kunming mice, 9-10 weeks old and weighing 22-24 g, were randomly divided by weight into 5 groups and administered by gavage a single dose of one of the drugs listed in Table 6. Sixty minutes later, the mice were placed in individual beakers (2500 ml, 20 cm×14 cm in diameter), which had previously been filled with water (25° C.) up to 10 cm from the bottom. The duration of immobility in the last 4 minutes in the 6-min swimming test was recorded (the term immobility indicates no movement except for respiration). T-test was used for statistical analysis.
Fifty male Kunming mice, 8-9 weeks old and weighing 18-22 g, were randomly divided by weight into 5 groups and subjected to gavage once a day for 10 consecutive days as shown in Table 7. Sixty minutes after the last dose, the mice were individually placed in beakers (2500 ml, 20 cm×14 cm in diameter), which had previously been filled with water (25° C.) up to 10 cm from the bottom. The cumulative time of immobility in the last 4 minutes of a total swimming time of 6 minutes was recorded (the term immobility indicates no movement except for respiration). T-test was used for statistical analysis.

In the case of `CC(C)=CCC[C@](C)(O)[C@H]1CC[C@]2(C)[C@@H]1[C@H](O)C[C@@H]1[C@@]3(C)CC[C@H](O)C(C)(C)[C@@H]3CC[C@]12C` [20(S)-protopanaxadiol], the “Number of running animals” value in test [1] (3.75 mg/kg × 1 i.g., with 5-HTP 200 mg/kg i.p.) is given as 2. The Number of crossing in test [2] (3.33 mg/kg × 21 i.g.) is 32.90 ± 13.19 times/3 min. Also, the Number of rearing in test [2] (3.33 mg/kg × 21 i.g.) was 6.50 ± 2.64 times/3 min. Moreover, the Amount of re-uptake in the test on 5-HT Re-uptake (concentration 0.01 μg/ml) is on record as 4377.8 ± 479.7 dmp; in the test on 5-HT Re-uptake (concentration 0.1 μg/ml) it was 4117.3 ± 532.0 dmp; in the test with 5-HT Re-uptake (concentration 1 μg/ml), 3963.5 ± 459.4 dmp; in the test on 5-HT Re-uptake (concentration 10 μg/ml), 3696.4 ± 392.9 dmp. Moreover, the Inhibitory rate was found to be 11.7% with 5-HT Re-uptake (concentration 0.01 μg/ml), 17.0% in the test with 5-HT Re-uptake (concentration 0.1 μg/ml), 20.1% with 5-HT Re-uptake (concentration 1 μg/ml) and 25.5% with 5-HT Re-uptake (concentration 10 μg/ml).
As to `CNCCC(Oc1ccc(C(F)(F)F)cc1)c1ccccc1` (centres unmarked) [Fluoxetine, reference compound], the “Number of running animals” value in test [1] (18 mg/kg × 1 i.g., with 5-HTP 200 mg/kg i.p.) is given as 8***. For the same molecule, the “Number of running animals” value in test [1] (18 mg/kg × 1 i.g., without 5-HTP) was 0. For the same molecule, in test [3] (multiple dose 18 mg/kg × 10 i.g.), the “Cumulative immobility within 4 minutes” value came out at 81.50 ± 36.77 s. In test [3] (single dose 18 mg/kg × 1 i.g.), the “Cumulative immobility within 6 minutes” value is 86.20 ± 32.56 s. In addition, in test [2] (16 mg/kg × 21 i.g.), the Number of crossing is 44.40 ± 1.45 times/3 min and the Number of rearing was 11.30 ± 3.43 times/3 min.
